Columns and labels:
Format in all cases: cell-based
MDA-MB-468 cells = test: Cell cycle distribution by flow cytometry, MDA-MB-468; details: IC50, 24 h; for Apoptosis subG1 fraction: control 10%; for Cell cycle distribution G2/M: control 17%; for Cell cycle distribution S: control 31%; for Cell cycle distribution G1: control 52%
Source text: In the MCF-7 breast cancer cell line that has been the most widely studied experimental cell system, the typical growth inhibitory response to antiestrogens is decrease in the proportion of cells synthesising DNA (S phase) after antiestrogen treatment. This decrease in S phase coincides with an increase in the proportion of cells in G0/G1 phase. The activity of the androgen receptor (AR) is also regulated by alterations in cell signaling. There has been reported ligand independent activation of AR in prostate cancer cells by different growth factors. As the AR can be activated in the absence of hormone, it appears that the conditions may be more restricted than those observed for ER. Use of physiologic doses of ligand (dihydrotestosterone, DHT) is of importance as the LNCaP cells proliferate only at DHT concentration of 10^−9 M or lower. […] In contrast to proliferation, transactivation of AR specific target genes (e.g. PSA) continues to increase with DHT doses of 10^−10 M and higher. It might be accepted for estrogen or androgen receptors as stronger cytotoxic activities of brassinosteroids 9 or 6 on hormone-sensitive (MCF-7, LNCaP) compared to hormone-insensitive (MDA-MB-468, DU-145) cell lines were found. Therefore we explored the possibility of cell cycle perturbation by BRs in different cancer cell lines. Flow cytometry was used to evaluate the number of cells in the particular phases of the cell cycle, including subG1 peak detection. Control and treated cells were washed twice with cold PBS and centrifuged at 360×g for 10 min at 4° C., and fixed with chilled ethanol (70%; v/v) by low-speeded vortexing. For detection of DNA content analysis, propidium iodide staining was used. The cells were analyzed using a FACSCalibur flow cytometer (BD Biosciences, San Jose, Calif.).
Flow-cytometric detection of apoptosis. Several studies have declared that the induction of apoptosis may be cell cycle-dependent. Therefore, in our next series of experiments, we tested if brassinosteroids 9 or 6 cause apoptosis of the breast and prostate cancer cells via cell cycle blockage. From this reason we carried out DNA cell cycle analysis by flow cytometry based on detection of endonucleolytic DNA degradation that results in extraction of low molecular weight DNA from the cells. […] The subG1 peak containing apoptotic bodies was however not observed in MCF-7 cells.

[1] = tested on: LNCaP (androgen-sensitive) prostate cancer cell line; test: MTT cytotoxicity test, LNCaP; details: 24 h, mean ± SD, read-out: IC50 determined by MTT cytotoxicity test
Description: 3-(4,5-Dimethylthiazol-2-yl)-2,5-diphenyltetrazolium bromide (MTT) was from Serva Electrophoresis (Heidelberg, Germany). Monoclonal mouse anti-bromodeoxyuridine (BrdU) intibody was obtained from DakoCytomation (Glostrup, Denmark). Calcein AM was obtained from PAA Laboratories GmbH (Pasching, Austria). […] All other cells were cultured in DMEM medium (Sigma, MO, USA). All used media were supplemented with 10% heat-inactivated fetal bovine serum, 2 mmol/L L-glutamine, 1% penicillin/streptomycin. The cell lines were maintained under standard cell culture conditions at 37° C. and 5% CO2 in a humid environment. Cells were subcultured twice or three times a week using the standard trypsinization procedure (Sigma, USA).
Cell viability in this case was assessed by 3-(4,5-dimethylthiozol-2-yl)-2,5-diphenyltetrazolium bromide (MTT) to determine IC50 concentrations of studied agents as described previously. […] The cells (70% to 80% confluent) were treated with brassinosteroids for 6, 12 and 24 h in cell culture medium. Cells that were used as controls were incubated with the maximum used amount of steroid diluent DMSO only. […] The absorbance was read using an ELISA reader Labsystem Multiscan RC at 570 nm. The viability of treated cells was related to the viability of control cells that represented 100% viability. […]

DU-145 cells [2] = test: BrdU incorporation assay, DU-145
Description: To analyze if the inhibition in cell viability was due to decreased cell proliferation, we measured DNA synthesis in the presence of BRs. The effect of brassinosteroids 9 or 6 on cell proliferation and DNA replication of the cancer cells was measured by BrdU incorporation assay. This immunostaining was based on nuclear incorporation of bromodeoxyuridine (BrdU) into DNA in place of thymidine during the S-phase of cell cycle detected by anti-specific-BrdU antibody following membrane permeabilization as described previously (Gratzner, Science. 1982, 218, 474-475). […] The BrdU reagent (0.1 mM; Sigma, MO, USA) was added in culture medium with cells for 4 h in a CO2 incubator at 37° C. After incubation the cells were washed three times with PBS and fixed with cold acetone-methanol (1:1, v/v) for 10 min. The cells were denaturated by HCl (1:5; Lachema, Czech Republic) and incubated with anti-specific-BrdU antibody (diluted 1:100 in PBS; clone Bu20a, DakoCytomation, Denmark) for 60 min in the dark. The cells were then washed three times in PBS (10 mM, pH 7.4) and incubated with goat anti-mouse fluorescein isothiocyanate (FITC)-labeled secondary antibody (Sigma, MO, USA) for 60 min in the dark. The cells were then washed three times in PBS and incubated with DAPI (50 μg/mL; Sigma, MO, USA) for 10 min in the dark. The coverslips with cells were washed in deionized water and mounted on glass slides, using the hydrophilic medium Mowiol (Calbiochem, Calif., USA) in glycerol-PBS (1:3, v/v) for fluorescence. Cells were visualized using microscopy and those incorporating BrdU (S phase cells) were counted in at least 25 fields and compared with the total number of all cells.

[3] = tested on: malignant human melanoma cell line G361; test: Calcein AM cytotoxicity assay, G 361; details: G 361; exposure 72 h (b71 says 96 h); mean ± SD; read-out: IC50 assessed by Calcein AM assay of surviving cells
DU-145 cells [4] = test: TUNEL detection of apoptosis, DU-145; details: IC50 concentration, control 0.0 ± 0.0
Description: TdT-Mediated dUTP nick end labeling (TUNEL) detection of apoptosis index. For detection of apoptotic cells, the TUNEL assay was used. […] After period of treatment, the cells were washed with PBS and fixed on the slides with cold acetone-methanol (1:1, v/v) for 10 min. Apoptosis-induced nuclear DNA fragmentation was detected by terminal deoxynucleotidyl transferase-mediated UTP nick end labeling (TUNEL) technique according to the producer protocol (In Situ Cell Death Detection Kit; Roche Diagnostics, Mannheim, Germany). The cells were then washed three times in PBS and stained with 4′-6-diamidino-2-phenylindole (DAPI; 50 μg/ml; Sigma, St. Louis, Mo., USA) for 10 min in the dark. The coverslips with cells were washed in deionized water and mounted on glass slides, using the hydrophilic medium Mowiol (Calbiochem, Fremont, Calif., USA) in glycerol-PBS (1:3, v/v) for fluorescence. Cells were visualized using fluorescence microscopy and compared with control cells. TUNEL staining achieved to confirm apoptosis in all cell lines.

[5] = treated at IC50 for 6 h, control 51 ± 3.8
[6] = treated at IC50 for 12 h, control 54 ± 4.2
[7] = treated at IC50 for 24 h, control 56 ± 6.5

SMILES | Apoptosis subG1 fraction (MDA-MB-468 cells) [%] | Cell cycle distribution G2/M (MDA-MB-468 cells) [%] | Cell cycle distribution S (MDA-MB-468 cells) [%] | Cell cycle distribution G1 (MDA-MB-468 cells) [%] | IC50 [1] [µM] | percentage of proliferating BrdU positive cells (DU-145 cells [2]; [5]) [%] | percentage of proliferating BrdU positive cells (DU-145 cells [2]; [6]) [%] | percentage of proliferating BrdU positive cells (DU-145 cells [2]; [7]) [%] | IC50 [3] [µM] | percentage of TUNEL positive cells (DU-145 cells [4]; 6 h) [%] | percentage of TUNEL positive cells (DU-145 cells [4]; 12 h) [%] | percentage of TUNEL positive cells (DU-145 cells [4]; 24 h) [%]
CC(C)[C@@H](C)[C@@H](O)[C@H](O)[C@@H](C)[C@H]1CC[C@H]2[C@@H]3COC(=O)[C@H]4C[C@H](O)[C@H](O)C[C@]4(C)[C@H]3CC[C@]12C [Brassinosteroid 6, 24-Epibrassinolide] | 75 | 2 | 10 | 88 | 60 ± 3.1 | 32 ± 3.8 | 27 ± 5.3 | 16 ± 1.5 | > 50 | 4.7 ± 2.5 | 5.6 ± 2.0 | 5.1 ± 5.6
CC[C@@H](C(C)C)[C@@H](O)[C@H](O)[C@@H](C)[C@H]1CC[C@H]2[C@@H]3CC(=O)[C@H]4C[C@H](O)[C@H](O)C[C@]4(C)[C@H]3CC[C@]12C [Brassinosteroid 9, 28-Homocastasterone] | 35 | 9 | 17 | 74 | 45 ± 2.3 | 41 ± 4.5 | 36 ± 4.4 | 38 ± 4.0 | > 50 | 6.0 ± 2.0 | 7.5 ± 4.0 | 8.0 ± 4.0

Source: US20100204460A1, “NATURAL BRASSINOSTEROIDS FOR USE FOR TREATING HYPERPROLIFERATION, TREATING PROLIFERATIVE DISEASES AND REDUCING ADVERSE EFFECTS OF STEROID DYSFUNCTION IN MAMMALS, PHARMACEUTICAL COMPOSITION AND ITS USE” (priority 2007, published 2010)
